Assay results from ChEMBL document CHEMBL3885881, “DrugMatrix”.

Organism: Rattus norvegicus
Test: DrugMatrix - Regimen: Daily Repeat
Assay type: toxicity, organism-based, Sprague-Dawley
Set-up: regimen Daily Repeat, gender Male, age 6-8 weeks
Conditions: in vivo, po, route oral GAVAGE, vehicle 100 % WATER; for ABSOLUTE BASOPHIL / ABSOLUTE EOSINOPHIL / ABSOLUTE LYMPHOCYTE / ABSOLUTE MONOCYTE / ABSOLUTE SEGMENTED NEUTROPHIL / BASOPHIL / EOSINOPHIL / ERYTHROCYTE COUNT / HEMATOCRIT / HEMOGLOBIN / LEUKOCYTE COUNT / LYMPHOCYTE / MEAN CORPUSCULAR HEMOGLOBIN / MEAN CORPUSCULAR HEMOGLOBIN CONCENTRATION / MEAN CORPUSCULAR VOLUME / MONOCYTE / NEUTROPHIL / NUCLEATED RED BLOOD CELLS / PLATELET COUNT: tissue Blood; for ALANINE AMINOTRANSFERASE / ALBUMIN / ALKALINE PHOSPHATASE / ASPARTATE AMINOTRANSFERASE / BLOOD UREA NITROGEN / CARBON DIOXIDE / CHLORIDE / CHOLESTEROL / CREATINE PHOSPHOKINASE / CREATININE / GLUCOSE / LACTATE DEHYDROGENASE / LIPASE / PHOSPHORUS / POTASSIUM / SODIUM / TOTAL BILIRUBIN / TOTAL PROTEIN / URIC ACID: tissue Plasma
[1] = 0 mg/kg, 72 h, dose level Control, time 3 day
[2] = 0 mg/kg, 120 h, dose level Control, time 5 day
[3] = 1 mg/kg, 72 h, dose level Low, time 3 day

In the case of `CN1C2CCCC1CC(NC(=O)c1nn(C)c3ccccc13)C2` (centres undefined) [GRANISETRON], the “ABSOLUTE BASOPHIL” value [1] was 0 CELLS/uL, the “ABSOLUTE EOSINOPHIL” value [1] was 0 CELLS/uL and the “ABSOLUTE LYMPHOCYTE” value [1] was 8482.5 CELLS/uL. The “ABSOLUTE MONOCYTE” value [1] was 63.83 CELLS/uL, the “ABSOLUTE SEGMENTED NEUTROPHIL” value [1] was 887 CELLS/uL and the BASOPHIL [1] was 0%. The EOSINOPHIL [1] was 0%, the “ERYTHROCYTE COUNT” value [1] was 5.49 x10E6/uL and the HEMATOCRIT [1] was 34.5%. For the same molecule, the HEMOGLOBIN [1] was 13.33 G/DL, the “LEUKOCYTE COUNT” value [1] was 9.43 x10E3/uL and the LYMPHOCYTE [1] was 90.17%. The “MEAN CORPUSCULAR HEMOGLOBIN” value [1] was 24.3 pg, the “MEAN CORPUSCULAR HEMOGLOBIN CONCENTRATION” value [1] was 38.63 G/DL and the “MEAN CORPUSCULAR VOLUME” value [1] was 62.88 fL. The MONOCYTE [1] was 0.67%, the NEUTROPHIL [1] was 9.17% and the “NUCLEATED RED BLOOD CELLS” value [1] was 0.67 /100WBC. For the same molecule, the “PLATELET COUNT” value [1] was 1022.83 x10E3/uL, the “ALANINE AMINOTRANSFERASE” value [1] was 50.5 u/L and the ALBUMIN [1] was 4.08 G/DL. For the same molecule, the “ALKALINE PHOSPHATASE” value [1] was 368.33 u/L, the “ASPARTATE AMINOTRANSFERASE” value [1] was 87.5 u/L and the “BLOOD UREA NITROGEN” value [1] was 12.83 mg/dL. The “CARBON DIOXIDE” value [1] was 32.83 mmol/L, the CHLORIDE [1] was 99.67 MEQ/L and the CHOLESTEROL [1] was 79.67 mg/dL. The “CREATINE PHOSPHOKINASE” value [1] was 585 u/L, the CREATININE [1] was 0.22 mg/dL and the GLUCOSE [1] was 135.67 mg/dL. The “LACTATE DEHYDROGENASE” value [1] was 171 u/L, the LIPASE [1] was 9.5 u/L and the PHOSPHORUS [1] was 11.18 mg/dL. The POTASSIUM [1] was 6.25 MEQ/L, the SODIUM [1] was 144.87 MEQ/L and the “TOTAL BILIRUBIN” value [1] was 0.2 mg/dL. The “TOTAL PROTEIN” value [1] was 6.08 G/DL, the “URIC ACID” value [1] was 0.65 mg/dL and the “ABSOLUTE BASOPHIL” value [2] was 0 CELLS/uL. The “ABSOLUTE EOSINOPHIL” value [2] was 14.5 CELLS/uL, the “ABSOLUTE LYMPHOCYTE” value [2] was 7596.17 CELLS/uL and the “ABSOLUTE MONOCYTE” value [2] was 69.67 CELLS/uL. For the same molecule, the “ABSOLUTE SEGMENTED NEUTROPHIL” value [2] was 503 CELLS/uL, the BASOPHIL [2] was 0% and the EOSINOPHIL [2] was 0.17%. For the same molecule, the “ERYTHROCYTE COUNT” value [2] was 5.49 x10E6/uL, the HEMATOCRIT [2] was 34.72% and the HEMOGLOBIN [2] was 13.47 G/DL. The “LEUKOCYTE COUNT” value [2] was 8.18 x10E3/uL, the LYMPHOCYTE [2] was 92.17% and the “MEAN CORPUSCULAR HEMOGLOBIN” value [2] was 24.57 pg. For the same molecule, the “MEAN CORPUSCULAR HEMOGLOBIN CONCENTRATION” value [2] was 38.82 G/DL, the “MEAN CORPUSCULAR VOLUME” value [2] was 63.3 fL and the MONOCYTE [2] was 1%. For the same molecule, the NEUTROPHIL [2] was 6.67%, the “NUCLEATED RED BLOOD CELLS” value [2] was 0 /100WBC and the “PLATELET COUNT” value [2] was 1141 x10E3/uL. The “ALANINE AMINOTRANSFERASE” value [2] was 48.33 u/L, the ALBUMIN [2] was 4.07 G/DL and the “ALKALINE PHOSPHATASE” value [2] was 395.67 u/L. For the same molecule, the “ASPARTATE AMINOTRANSFERASE” value [2] was 85.67 u/L, the “BLOOD UREA NITROGEN” value [2] was 15.83 mg/dL and the “CARBON DIOXIDE” value [2] was 31.33 mmol/L. The CHLORIDE [2] was 100.83 MEQ/L, the CHOLESTEROL [2] was 62.33 mg/dL and the “CREATINE PHOSPHOKINASE” value [2] was 248.33 u/L. For the same molecule, the CREATININE [2] was 0.2 mg/dL, the GLUCOSE [2] was 135.67 mg/dL and the “LACTATE DEHYDROGENASE” value [2] was 141.33 u/L. It also gave an LIPASE [2] of 9.5 u/L, a PHOSPHORUS [2] of 10.73 mg/dL and a POTASSIUM [2] of 6.07 MEQ/L. For the same molecule, the SODIUM [2] was 145.35 MEQ/L, the “TOTAL BILIRUBIN” value [2] was 0.22 mg/dL and the “TOTAL PROTEIN” value [2] was 6.12 G/DL. The “URIC ACID” value [2] was 0.63 mg/dL, the “ABSOLUTE BASOPHIL” value [3] was 0 CELLS/uL and the “ABSOLUTE EOSINOPHIL” value [3] was 35.67 CELLS/uL. The “ABSOLUTE LYMPHOCYTE” value [3] was 7674 CELLS/uL, the “ABSOLUTE MONOCYTE” value [3] was 0 CELLS/uL and the “ABSOLUTE SEGMENTED NEUTROPHIL” value [3] was 690.33 CELLS/uL. For the same molecule, the BASOPHIL [3] was 0%, the EOSINOPHIL [3] was 0.33% and the “ERYTHROCYTE COUNT” value [3] was 5.55 x10E6/uL. For the same molecule, the HEMATOCRIT [3] was 33.93%, the HEMOGLOBIN [3] was 12.9 G/DL and the “LEUKOCYTE COUNT” value [3] was 8.4 x10E3/uL. For the same molecule, the LYMPHOCYTE [3] was 92%, the “MEAN CORPUSCULAR HEMOGLOBIN” value [3] was 23.3 pg and the “MEAN CORPUSCULAR HEMOGLOBIN CONCENTRATION” value [3] was 38.03 G/DL. For the same molecule, the “MEAN CORPUSCULAR VOLUME” value [3] was 61.3 fL, the MONOCYTE [3] was 0% and the NEUTROPHIL [3] was 7.67%. The “NUCLEATED RED BLOOD CELLS” value [3] was 0.33 /100WBC, the “PLATELET COUNT” value [3] was 1023.67 x10E3/uL and the “ALANINE AMINOTRANSFERASE” value [3] was 49 u/L. The ALBUMIN [3] was 4 G/DL, the “ALKALINE PHOSPHATASE” value [3] was 371 u/L and the “ASPARTATE AMINOTRANSFERASE” value [3] was 82.67 u/L. The “BLOOD UREA NITROGEN” value [3] was 11.67 mg/dL, the “CARBON DIOXIDE” value [3] was 34 mmol/L and the CHLORIDE [3] was 99.33 MEQ/L. The CHOLESTEROL [3] was 76.33 mg/dL, the “CREATINE PHOSPHOKINASE” value [3] was 380.33 u/L and the CREATININE [3] was 0.29 mg/dL. For the same molecule, the GLUCOSE [3] was 141.67 mg/dL, the “LACTATE DEHYDROGENASE” value [3] was 138.33 u/L and the LIPASE [3] was 12 u/L. For the same molecule, the PHOSPHORUS [3] was 10.8 mg/dL, the POTASSIUM [3] was 5.77 MEQ/L and the SODIUM [3] was 145.17 MEQ/L. The “TOTAL BILIRUBIN” value [3] was 0.1 mg/dL, the “TOTAL PROTEIN” value [3] was 5.83 G/DL and the “URIC ACID” value [3] was 0.57 mg/dL.
